Laboratory results reported in paper PMC8875489, “Pharmaceutical and Safety Profile Evaluation of Novel Selenocompounds with Noteworthy Anticancer Activity” (Pharmaceutics, 2022).

Experiments:
[1] = PAMPA membrane permeability test (capillary electrophoresis); format: in vitro ADME; conditions: for Papp at 5 h, 50 µM: 50 μM in PBS pH 7.4, 5 h, room temperature, read-out: In Vitro Permeability; for % Perm. (percentage that crossed from the donor well to the acceptor well): 5 h
Method: The passive transport and membrane absorption of 5 selected selenocompounds (EDA-58, EDA-71, EDA-119, EDA-122, and EDA-A6) were evaluated with the in vitro parallel artificial membrane permeability assay (PAMPA). This PAMPA assay could provide better predictability and membrane permeability correlations compared to the data obtained for human absorption in the Caco-2 cell line. The Precoated PAMPA Plate System Gentest™ (Corning, Bradford, MA, USA) was used to perform the permeability assay for the 5 selected Se compounds. The protocol of the permeability assay was similar to the previously described ones and is detailed in the Supplementary Materials.
Five selenocompounds (EDA-58, EDA-71, EDA-119, EDA-122, and EDA-A6) were evaluated with the PAMPA in vitro assay using the CE technique.
[formula] Scheme 1 Calculation of the in vitro permeability (cm/s). A (filter area) cm^2 = 0.3; VD (donor well volume) mL = 0.3; VA (acceptor well volume) mL = 0.2; t (incubation time) seconds = 18,000; CA(t) (compound concentration in acceptor well at time t); CD(t) (compound concentration in donor well at time t). […]
1.3. PAMPA test: membrane permeability evaluation.
The passive transport and the membrane absorption of 5 selected selenocompounds (EDA-58, EDA-71, EDA-119, EDA-122, EDA-A6) were evaluated in the in vitro Parallel Artificial Membrane Permeability Assay (PAMPA). The protocol of the permeability assay was similar to the ones previously described.
1.3.1. Stock solutions and sample preparation for PAMPA test
Working solutions of the tested compounds at the concentration of the 50 μM in the phosphate saline buffer (PBS, pH 7.4) were prepared from the stocks in the pure dimethyl sulfoxide (DMSO) and stored at -20° C. Moreover, to draw the precise calibration curves for each tested (EDA-58, EDA-71, EDA-119, EDA-122, EDA-A6) and reference com- […]
The Precoated PAMPA Plate System Gentest™ (Corning, Bradford, MA, USA) was used to perform permeability assay for the 5 selected Se-compounds. The essential part of […]
solvents. PAMPA Plate System was brought to room temperature 30 min before use.
The 96-well filter plate precoated with lipids was used as a permeation acceptor, whereas the 96-well receiver plate acted as the permeation donor plate. Therefore, the compound solutions were added to the wells (300 μL/well) of the receiver plate and PBS was added to wells (200 μL/well) of the precoated filter plate.
Then, the filter plate was coupled with the receiver plate and both were incubated at room temperature for five hours without agitation. […] Fi-nally, the permeability coefficients (Pe, [cm/s]) of the tested compounds were estimated using the formula provided by the PAMPA Plate System manufacturer.
1.3.3. Capillary electrophoresis (CE) analytical method […]
were calculated in both the donor and acceptor compartments using the capillary electro-

[2] = test system: Salmonella Typhimurium TA100 strain; test: Reference experiment: impact on Salmonella Typhimurium growth (OD600); format: cell-based, Salmonella enterica serovar Typhimurium; conditions: 1 and 10 µM, 20 h, 37 °C
Method: Therefore, a reference experiment with 20 h of incubation at constant temperature conditions (37 °C) was performed in order to determine the effect of the tested compounds on the growth of the Salmonella Typhimurium used in the Ames test. […] Therefore, this method could be successfully applied to determine the safety profile of the tested derivatives.
it indicated the occurrence of cytotoxic events.
Salmonella Typhimurium growth
microplate assay. During the experiment, Salmonella Typhimurium TA100 strain was cul-
At the day of the experiment,
tions of 25 μM and 250 μM) respectively. The final compound and mutagenic agent con-
References in Supplementary (same numeration than in manuscript)
Appl Biochem Biotechnol, 2018, 184(1), 124-139.
Karczewska, E.; Kieć-Kononowicz, K.; Handzlik, J.; Jacob, C. Pronounced activity of aromatic selenocyanates against multidrug
Chem Biol Drug Res, 2017, 90(6), 1295-1306.
Drug Des Devel Ther, 2016,
icity of Environmental Samples. Environ Mol Mutagen, 2010, 51(1), 31-38.
stranded DNA is characterized by guanine to pyrimidine transversions. Nucleic Acids Res, 1992, 20(6), 1283-1287.

| SMILES | permeability compared with caffeine [1] | Papp at 5 h, 50 µM [1] | % Perm. (percentage that crossed from the donor well to the acceptor well) [1] | effect on the growth of Salmonella Typhimurium [2] |
| --- | --- | --- | --- | --- |
| COC(=O)C[Se]C(=O)c1cc(OC)cc(OC)c1 [EDA-58, methyl 2-((3,5-dimethoxybenzoyl)selanyl)acetate] | lower permeability values than caffeine | 2.22 ×10⁻⁶ cm/s | 3.95% | – |
| CC(=O)C[Se]C(=O)c1ccc(Cl)cc1 [EDA-71, Se-(2-oxopropyl) 4-chlorobenzoselenoate] | higher permeability values than caffeine | 3.86 ×10⁻⁶ cm/s | 6.81% | – |
| C[Se]C(=O)c1ccc(C(=O)[Se]C)cc1 [EDA-109, Se,Se-dimethyl benzene-1,4-bis(carboselenoate)] | – | – | – | stimulating effect on the growth |
| C[Se]C(=O)c1cccc(C(=O)[Se]C)n1 [EDA-119, Se,Se-dimethyl pyridine-2,6-bis(carboselenoate)] | lower permeability values than caffeine | 3.27 ×10⁻⁶ cm/s | 5.79% | – |
| C[Se]C(=O)c1ccc(C(=O)[Se]C)s1 [EDA-122, Se,Se-dimethyl thiophene-2,5-bis(carboselenoate)] | higher permeability values than caffeine | 4.67 ×10⁻⁶ cm/s | 8.20% | – |
| O=C1[Se]C(=O)c2ccccc21 [EDA-A6, benzo[c]selenophene-1,3-dione] | higher permeability values than caffeine | 3.44 ×10⁻⁶ cm/s | 6.08% | – |
